Measured values reported in patent US12358907B2, “Substituted pyrrolidine amides III” (GRÜNENTHAL GMBH, priority 2019, dated 2025).
Like-named read-outs stand apart in the source and are kept apart here.

Target: glucocorticoid receptor (GAL4 DBD-GR) (Homo sapiens (Human), UniProt P04150)
Test: GR cell-based assays (GRE agonist / GRE antagonist), CHO-Gal4/GR luciferase reporter
Excerpt: Potential selective glucocorticoid receptor modulators of this intervention can be tested for modulation of the activity of the glucocorticoid receptor using cell-based assays. These assays involve a Chinese hamster ovary (CHO) cell line which contains fragments of the glucocorticoid receptor as well as fusion proteins. The glucocorticoid receptor fragments used are capable of binding the ligand (e.g. beclomethasone) to identify molecules that compete for binding with glucocorticoid receptor ligands. In more detail, the glucocorticoid receptor ligand binding domain is fused to the DNA binding domain (DBD) of the transcription factor GAL4 (GAL4 DBD-GR) and is stably integrated into a CHO cell line containing a GAL4-UAS-Luciferase reporter construct. […] After cell lysis the luminescence that is produced by luciferase after addition of the substrate is detected and EC50 or IC50 values can be calcuated. Engagement of molecules which induce gene expression via glucocortocoid receptor binding to the DNA leads to expression of the luciferase gene under the control of the fusion protein GAL4 DBD-GR and therefore to a dose-dependent increase of the luminescence signal. Binding of molecules which repress beclomethasone-induced gene expression of the luciferase gene under the control of the fusion protein GAL4 DBD-GR leads to a dose-dependent reduction of the luminescence signal.
The reporter cell line CHO-Gal4/GR consisted of a chinese hamster ovary (CHO) cell line (Leibniz Institute DSMZ—German Collection of Microorganisms and Cell Cultures GmbH: ACC-110) containing a firefly luciferase gene under the control of the GR ligand binding domain fused to the DNA binding domain (DBD) of GAL4 (GAL4 DBD-GR) stably integrated into CHO cells. This cell line was established by stable transfection of CHO cells with a GAL4-UAS-Luciferase reporter construct. In a subsequent step the ligand binding domain of the GR cloned into pIRES2-EGFP-GAL4 containing the DNA binding domain of GAL4 from pFA-AT2 was transfected. This fusion construct activated firefly luciferase expression under the control of a multimerized GAL4 upstream activation sequence (UAS). The signal of the emitted luminescence was recorded by the FLIPR^TETRA. This allowed for specific detection of ligand-induced activation of the GR and therefore for the identification of compounds with agonistic properties. The GAL4/UAS reporter was premixed with a vector that constitutively expressed Renilla luciferase, which served as an internal positive control for transfection efficiency.
The complete culture medium for the assay was: • DMEM F-12 (1:1) MIXTURE (LONZA cat. No: BE04-687F/U1) 500 mL • 5 mL of 100 mM Sodium Pyruvate (LONZA cat. No: BE12-115E) • 25 mL of 7.5% Sodium Bicarbonate (LONZA cat. No BE17-613E) • 6.5 mL of 1 M Hepes (LONZA cat. No: BE17-737E) • 5 mL of 100× Penicillin/Streptomycin (LONZA cat. No DE17-602E) • 50 mL of Fetal Bovine Serum (Euroclone cat. No ECS 0180L) • 0.25 mL of 10 mg/mL Puromycin (InvivoGen cat.: ant-pr-1) • 0.5 mL of 100 mg/mL Zeocin (InvivoGen cat.: ant-zn-1)
Cryo-preserved CHO-Gal4/GR cells were suspended in complete medium and 5000 cells/25 μl/well were seeded into the wells of 384-well polystyrene assay plates (Thermo Scientific, cat. #4332) and cultured at 37° C., 5% CO2 and 95% humidity. After 24 hours growth medium was carefully removed and replaced by 30 μl Opti-MEM (GIBCO, cat. #31985062) as assay buffer. To test the compounds an 8-point half-log compound dilution curve was generated in 100% DMSO starting from a 2 mM stock and compounds were then diluted 1:50 in Opti-MEM. 10 μl of compounds were then added to the wells containing 30 μl Opti-MEM resulting in a final assay concentration range from 10 μM to 0.003 μM in 0.5% DMSO. Compounds were tested at 8 concentrations in quadruplicate data points. […] Finally, cells were lysed with 20 μl of Triton/Luciferin solution and the signal of the emitted luminescence was recorded at the FLIPR^TETRA for 2 minutes. […]

glucocorticoid receptor (GAL4 DBD-GR), sequence (P04150 524-758): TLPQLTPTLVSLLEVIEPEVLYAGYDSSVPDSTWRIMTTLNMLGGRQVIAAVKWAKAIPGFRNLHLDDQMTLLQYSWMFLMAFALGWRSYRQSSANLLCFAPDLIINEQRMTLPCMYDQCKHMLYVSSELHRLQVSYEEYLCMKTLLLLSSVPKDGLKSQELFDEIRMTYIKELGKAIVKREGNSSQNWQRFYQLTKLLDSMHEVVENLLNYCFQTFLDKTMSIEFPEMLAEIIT

IC50 (read-out: IC50 or EC50) [nM]	IC50 (CHO-Gal4/GR reporter cells, agonist mode (EC50) or antagonist mode against beclometasone (IC50), 6 hour incubation) [nM]	Compound
1000 to 15000		CC[C@@H]1[C@@H](NC(=O)C(C)(F)F)[C@H](Cc2ccccc2)C(=O)N1c1ccc2c(cnn2-c2ccc(F)cc2)c1 (racemic) [Example 107, N-[rac-(2R,3S,4S)-4-Benzyl-2-ethyl-1-[1-(4-fluorophenyl)-1H-indazol-5-yl]-5-oxo-pyrrolidin-3-yl]-2,2-difluoro-propionamide]
< 100		C[C@@H]1C(=O)N(c2ccc3c(cnn3-c3ccc(F)cc3)c2)[C@H](c2ccc(Cl)s2)[C@H]1NC(=O)C1CC1 (racemic) [Example 108, N-[rac-(2S,3S,4S)-2-(5-Chloro-thiophen-2-yl)-1-[1-(4-fluorophenyl)-1H-indazol-5-yl]-4-methyl-5-oxo-pyrrolidin-3-yl]-cyclopropanecarboxylic acid amide]
< 100		C[C@@H]1C(=O)N(c2ccc3c(cnn3-c3ccc(F)cc3)c2)[C@H](c2ccc(Cl)s2)[C@H]1NC(=O)c1ncccn1 (racemic) [Example 109, N-[rac-(2S,3S,4S)-2-(5-Chloro-thiophen-2-yl)-1-[1-(4-fluorophenyl)-1H-indazol-5-yl]-4-methyl-5-oxo-pyrrolidin-3-yl]-pyrimidine-2-carboxylic acid amide]
< 100		C[C@@H]1C(=O)N(c2ccc3c(cnn3-c3ccc(F)cc3)c2)[C@H](c2ccc(Cl)s2)[C@H]1NC(=O)c1ccn(C)n1 (racemic) [Example 110, N-[rac-(2S,3S,4S)-2-(5-Chloro-thiophen-2-yl)-1-[1-(4-fluorophenyl)-1H-indazol-5-yl]-4-methyl-5-oxo-pyrrolidin-3-yl]-1-methyl-1H-pyrazole-3-carboxylic acid amide]
< 100		C[C@@H]1C(=O)N(c2ccc3c(cnn3-c3ccc(F)cc3)c2)[C@H](c2ccc(Cl)s2)[C@H]1NC(=O)c1cccnc1 (racemic) [Example 111, N-[rac-(2S,3S,4S)-2-(5-Chloro-thiophen-2-yl)-1-[1-(4-fluorophenyl)-1H-indazol-5-yl]-4-methyl-5-oxo-pyrrolidin-3-yl]-pyridine-3-carboxylic acid amide]
100 to 1000		C[C@@H]1C(=O)N(c2ccc3c(cnn3-c3ccc(F)cc3)c2)[C@H](c2ccccc2Cl)[C@H]1NC(=O)C1CC1 (racemic) [Example 112, N-[rac-(2R,3S,4S)-2-(2-Chlorophenyl)-1-[1-(4-fluorophenyl)-1H-indazol-5-yl]-4-methyl-5-oxo-pyrrolidin-3-yl]-cyclopropanecarboxylic acid amide]
100 to 1000		Cc1ncsc1C(=O)N[C@H]1[C@H](C)C(=O)N(c2ccc3c(cnn3-c3ccc(F)cc3)c2)[C@@H]1c1ccc(Cl)s1 (racemic) [Example 113, N-[rac-(2S,3S,4S)-2-(5-Chloro-thiophen-2-yl)-1-[1-(4-fluorophenyl)-1H-indazol-5-yl]-4-methyl-5-oxo-pyrrolidin-3-yl]-4-methyl-thiazole-5-carboxylic acid amide]
1000 to 15000		C[C@@H]1C(=O)N(c2ccc3c(cnn3-c3ccc(F)cc3)c2)[C@H](c2ccn(C)n2)[C@H]1NC(=O)C(C)(F)F (racemic) [Example 120, 2,2-Difluoro-N-[rac-(2S,3S,4S)-1-[1-(4-fluorophenyl)-1H-indazol-5-yl]-4-methyl-2-(1-methyl-1H-pyrazol-3-yl)-5-oxo-pyrrolidin-3-yl]-propionamide]
< 100		O=C(N[C@H]1[C@H](CC2CC2)C(=O)N(c2ccc3c(cnn3-c3ccc(F)cc3)c2)[C@@H]1c1ccccc1)C1CC1 (racemic) [Example 121, N-[rac-(2R,3S,4S)-4-(Cyclopropyl-methyl)-1-[1-(4-fluorophenyl)-1H-indazol-5-yl]-5-oxo-2-phenyl-pyrrolidin-3-yl]-cyclopropanecarboxylic acid amide]
< 100		C[C@@H]1C(=O)N(c2ccc3c(cnn3-c3ccc(F)cc3)c2)[C@H](c2ccc(Cl)s2)[C@H]1NC(=O)C(C)(F)F (racemic) [Example 123, N-[rac-(2S,3S,4S)-2-(5-Chloro-thiophen-2-yl)-1-[1-(4-fluorophenyl)-1H-indazol-5-yl]-4-methyl-5-oxo-pyrrolidin-3-yl]-2,2-difluoro-propionamide]
< 100		C[C@H]1C(=O)N(c2ccc3c(cnn3-c3ccc(F)cc3)c2)[C@H](c2ccc(Cl)s2)[C@H]1NC(=O)C1CC1 (racemic) [Example 124, N-[rac-(2S,3S,4R)-2-(5-Chloro-thiophen-2-yl)-1-[1-(4-fluorophenyl)-1H-indazol-5-yl]-4-methyl-5-oxo-pyrrolidin-3-yl]-cyclopropanecarboxylic acid amide]
< 100		C[C@H]1C(=O)N(c2ccc3c(cnn3-c3ccc(F)cc3)c2)[C@H](c2ccc(Cl)s2)[C@H]1NC(=O)C(C)(F)F (racemic) [Example 125, N-[rac-(2S,3S,4R)-2-(5-Chloro-thiophen-2-yl)-1-[1-(4-fluorophenyl)-1H-indazol-5-yl]-4-methyl-5-oxo-pyrrolidin-3-yl]-2,2-difluoro-propionamide]
< 100		CC[C@@H]1C(=O)N(c2ccc3c(cnn3-c3ccc(F)cc3)c2)[C@H](c2ccccc2)[C@H]1NC(=O)C1CC1 (racemic) [Example 126, N-[rac-(2R,3S,4S)-4-Ethyl-1-[1-(4-fluorophenyl)-1H-indazol-5-yl]-5-oxo-2-phenyl-pyrrolidin-3-yl]-cyclopropanecarboxylic acid amide]
100 to 1000		C[C@]1(F)C(=O)N(c2ccc3c(cnn3-c3ccc(F)cc3)c2)[C@H](c2ccccc2)[C@H]1NC(=O)C1CC1 (racemic) [Example 128, N-[rac-(2R,3R,4R)-4-Fluoro-1-[1-(4-fluorophenyl)-1H-indazol-5-yl]-4-methyl-5-oxo-2-phenyl-pyrrolidin-3-yl]-cyclopropanecarboxylic acid amide]
< 100		C[C@@]1(F)C(=O)N(c2ccc3c(cnn3-c3ccc(F)cc3)c2)[C@H](c2ccccc2)[C@H]1NC(=O)C1CC1 (racemic) [Example 129, N-[rac-(2R,3R,4S)-4-Fluoro-1-[1-(4-fluorophenyl)-1H-indazol-5-yl]-4-methyl-5-oxo-2-phenyl-pyrrolidin-3-yl]-cyclopropanecarboxylic acid amide]
100 to 1000		COc1ccc([C@@H]2[C@@H](NC(=O)C3CC3)[C@H](C)C(=O)N2c2ccc3c(cnn3-c3ccc(F)cc3)c2)cc1 (racemic) [Example 133, N-[rac-(2R,3S,4S)-1-[1-(4-Fluorophenyl)-1H-indazol-5-yl]-2-(4-methoxyphenyl)-4-methyl-5-oxo-pyrrolidin-3-yl]-cyclopropanecarboxylic acid amide]
100 to 1000		CC[C@@]1(C)C(=O)N(c2ccc3c(cnn3-c3ccc(F)cc3)c2)[C@H](c2ccccc2)[C@H]1NC(=O)C1CC1 (racemic) [Example 134, N-(rac-(2R,3S,4R)-4-ethyl-1-(1-(4-fluorophenyl)-1H-indazol-5-yl)-4-methyl-5-oxo-2-phenylpyrrolidin-3-yl)cyclopropanecarboxamide]
	< 100	C[C@@]1(CC(F)F)C(=O)N(c2ccc3c(cnn3-c3ccc(F)cc3)c2)[C@H](c2ccccc2)[C@H]1NC(=O)C1CC1 (racemic) [Example 136, N-(rac(2R,3S,4S)-4-(2,2-difluoroethyl)-1-(1-(4-fluorophenyl)-1H-indazol-5-yl)-4-methyl-5-oxo-2-phenylpyrrolidin-3-yl)cyclopropanecarboxamide]
